The results in this text go back to US8618100B2, “Compounds with antibacterial activity against Clostridium” (Elanco Animal Health Ireland Limited, priority 2010, dated 2013).

Converted amounts (≈) assume the structure as drawn.

One series relates to Klebsiella pneumoniae. In words: In-vitro test against several bacteria (D.1.3): K. pneumoniae. The following applies: read-out: IC90 against K. pneumoniae.
For the next series, the system named is Acinetobacter baumanii. In words: In-vitro test against several bacteria (D.1.3): A. baumanii. It counts as cell-based. The following applies: Acinetobacter baumannii; Gram negative; Nutrient broth; 20-24 hours aerobic. As to the method: (§1) The plates were incubated at 37° C.
A further series has as its system Enterococcus faecalis. As to the kind of experiment: In-vitro test against several bacteria (D.1.3): E. faecalis. The series is classed as cell-based. The following applies: Gram positive, Todd Hewitt medium, 20-24 hours in 5% CO2; for IC90: Enterococcus faecalis. As to the method: (§2) The plates were incubated at 37° C. […] Enterococcus faecalis, Streptococcus pneumonia: Todd Hewitt medium; incubation for 20-24 hours in 5% CO2.

In series [1] the test system is Staphylococcus epidermidis. As to the kind of experiment: In-vitro test against several bacteria (D.1.3): S. epidermidis. The following applies: for IC90: Staphylococcus epidermidis, read-out: IC90 against S. epidermidis.
The subject of the next series is Mycobacterium smegmatis. As to the kind of experiment: In-vitro test against several bacteria (D.1.3): M. smegmatis. The series is classed as cell-based. The following applies: Mycolicibacterium smegmatis; Mueller Hinton medium; 48 hours aerobic. As to the method: The plates were incubated at 37° C. […] Mycobacterium smegmatis: Mueller Hinton medium; incubation for 48 hours in aerobic conditions.

In the next series the test system is Escherichia coli. As to the kind of experiment: In-vitro test against several bacteria (D.1.3): E. coli. The conditions noted are these: read-out: IC90 against E. coli.
Series [2] deals with Clostridium perfringens (strain 56). As to the kind of experiment: microbe, parasite or virus in culture. It counts as cell-based. The following applies: 24 h, read-out: IC90 against C. perfringens.
For another series, the system named is Bacillus subtilis. As to the kind of experiment: In-vitro test against several bacteria (D.1.3): B. subtilis. The conditions noted are these: read-out: IC90 against B. subtilis.
For series [3], the system named is Clostridium difficile (ATCC9689). In words: In-vitro anti-bacterial activity against C. difficile (D.1.2). The series is classed as cell-based. The conditions noted are these: Clostridioides difficile, Reinforced Clostridial broth, 37° C., 48 hours, anaerobic, OD 570 nm.
In the next series the test system is Streptococcus pneumonia. As to the kind of experiment: In-vitro test against several bacteria (D.1.3): S. pneumonia. The series is classed as cell-based. The following applies: Gram positive, Todd Hewitt medium, 20-24 hours in 5% CO2; for IC90: Streptococcus pneumoniae. How it is done: as §2
For the next series, the system named is Pseudomonas aeruginosa. As to the kind of experiment: In-vitro test against several bacteria (D.1.3): P. aeruginosa. The following applies: read-out: IC90 against P. aeruginosa.
A further series deals with Staphylococcus aureus. As to the kind of experiment: In-vitro test against several bacteria (D.1.3): S. aureus. The conditions noted are these: for IC90: Staphylococcus aureus, read-out: IC90 against S. aureus.
Another series relates to Listeria monocytogenes. As to the kind of experiment: In-vitro test against several bacteria (D.1.3): L. monocytogenes. The conditions noted are these: read-out: IC90 against L. monocytogenes.
Series [4] deals with Methicillin-Resistant Staphylococcus aureus. As to the kind of experiment: In-vitro test against several bacteria (D.1.3): Methicillin-Resistant S. aureus. The following applies: for IC90: Staphylococcus aureus, read-out: IC90 against Methicillin-Resistant S. aureus.
The subject of a further series is Moraxella catarrhalis. As to the kind of experiment: In-vitro test against several bacteria (D.1.3): M. catarrhalis. The following applies: Gram negative, Brain heart Infusion medium, 20-24 hours aerobic, read-out: IC90 against M. cattarhalis. It counts as cell-based. How it is done:
as §1

The mark [5] stands for this setting: Gram positive, Mueller Hinton medium, 20-24 hours aerobic.

The term melting point denotes the temperature, or range, at which the solid turns liquid. Take `CNc1nc(NCCCN[C@@H]2CCOc3c(Br)cc(Br)cc32)nc2c(Cl)cnn12` [(3)]: the melting point fell in the range of 108.8 to 118.6 °C.

As usually defined, the IC90 is the concentration at which the effect reaches the 90% level. In the case of `O=c1cc(NCCCN[C@@H]2CCOc3c(Br)cc(Br)cc32)[nH]c2ccsc12` [REP3123, 5-[3-((R)(+)-6,8-dibromo-chroman-4-ylamino)-propylamino]-4H-thieno[3,2-b]pyridine-7-one], the IC90 in the series on Klebsiella pneumoniae is above 64 µg/mL; in the series with Acinetobacter baumanii, above 64 µg/mL; in the series on Enterococcus faecalis it was below 0.25 µg/mL; in [1], below 0.25 µg/mL; with Mycobacterium smegmatis, 6 to 8 µg/mL (≈ 11.7 to 15.6 µM); with Escherichia coli, above 32 µg/mL. Also, the IC90 in series [2] was 0.25 µg/mL (≈ 0.487 µM); in the series with Bacillus subtilis it was 0.12 µg/mL (≈ 0.234 µM); in series [3] it was 0.5 to 1 µg/mL (≈ 0.974 to 1.95 µM); in the series with Streptococcus pneumonia, 1 µg/mL (≈ 1.95 µM); with Pseudomonas aeruginosa it was above 78 µg/mL; in the series on Staphylococcus aureus it was below 0.25 µg/mL. The concentration for an effect of 90% (IC90) with Listeria monocytogenes is 0.12 µg/mL (≈ 0.234 µM); in series [4], below 0.25 µg/mL; in the series on Moraxella catarrhalis it was 16 µg/mL (≈ 31.2 µM). In the series on Enterococcus faecalis, the “IC90 against E. faecalis” value is below 0.25 µg/mL. In [1] (setting [5]), the “IC90 against S. epidermidis” value was below 0.25 µg/mL. For the same compound, the “IC90 against S. aureus” value in the series with Staphylococcus aureus (setting [5]) was below 0.25 µg/mL. The “IC90 against Methicillin-Resistant S. aureus” value in series [4] (setting [5]) was below 0.25 µg/mL.

As to `Cl.Oc1nc(NCCCN[C@@H]2CCOc3c(Br)cc(Br)cc32)nc2ccnn12` [Compound (2)], the melting point was 234.6 to 235.6 °C. The IC90 in the series on Klebsiella pneumoniae is above 64 µg/mL. Further, the IC90 with Acinetobacter baumanii is above 64 µg/mL. In the series with Enterococcus faecalis, this compound had an IC90 of 1.5 µg/mL. Moreover, the IC90 in [1] stood at 15 µg/mL. This compound also registered an IC90 in the series on Mycobacterium smegmatis above 31 µg/mL. Besides, in the series on Escherichia coli, the IC90 is above 31 µg/mL. Moreover, the IC90 in series [2] stood at 0.5 µg/mL. Moreover, the 90% effect concentration (IC90) in the series on Bacillus subtilis is 4 µg/mL. For the same compound, the IC90 in series [3] is 2 µg/mL. Moreover, in the series with Streptococcus pneumonia, the “IC90 against S. pneumonia” value is above 31 µg/mL and the IC90 was above 31 µg/mL. In the series on Pseudomonas aeruginosa, the IC90 is above 75 µg/mL. Besides, in the series with Staphylococcus aureus, the IC90 was in the range of 8 to 15 µg/mL. Further, the IC90 in the series on Listeria monocytogenes amounted to 2 µg/mL. The 90% effect concentration (IC90) in [4] fell in the range of 7 to 13 µg/mL. Also, the IC90 in the series on Moraxella catarrhalis was 16 µg/mL.

Take `Nc1nc(NCCCN[C@@H]2CCOc3c(Br)cc(Br)cc32)nc2c(Cl)cnn12` [(4)]: the melting point was in the range of 78.7 to 94.1 °C.
